Where two headings read alike, the source gives them in different places.
Tests used:
[1] = biological target: T1, CREBBP (Homo sapiens, UniProt Q92793); assay: Protein stability (thermal) shift assay, CREBBP; type: binding; settings: compound 10 μM, protein 2 μM; average of triplicate; read-out: ΔTm Shift, CREBBP
T1 construct: small thermal shits (1.0–1.3 °C) for the bromodomain of CREBBP; made in house

[2] = biological target: T2, BRD4(1) (Homo sapiens, UniProt O60885); assay: Protein stability (thermal) shift assay, BRD4(1); type: binding; settings: compound 10 μM, protein 2 μM; average of triplicate; read-out: ΔTm Shift, BRD4(1)
T2 construct: made in house

[3] = biological target: T3, BRD2(2) (Homo sapiens, UniProt P25440); assay: Protein stability (thermal) shift assay, BRD2(2); type: binding; settings: compound 10 μM, protein 2 μM; average of triplicate
T3 construct: made in house

[4] = biological target: T4, BRDT(2) (Homo sapiens, UniProt Q58F21); assay: Protein stability (thermal) shift assay, BRDT(2); type: binding; settings: compound 10 μM, protein 2 μM; average of triplicate; read-out: ΔTm Shift, BRDT(2)
T4 construct: made in house

[5] = biological target: T5, BRD9 (Homo sapiens, UniProt Q9H8M2); assay: Isothermal titration calorimetry, BRD9; type: binding; settings: for Kd / TΔS / ΔG / N (stoichiometry) / ΔHobs: ITC; for LE (ligand efficiency): LE = ΔG/N, N number of non-hydrogen atoms
T5 construct: made in house
T5 sequence (Q9H8M2 136-240 limits assumed): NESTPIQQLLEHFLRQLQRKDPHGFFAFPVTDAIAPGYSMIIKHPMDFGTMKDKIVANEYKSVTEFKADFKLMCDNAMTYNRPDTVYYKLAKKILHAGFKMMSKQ
Protocol: Experiments were carried out on an ITC200 titration microcalorimeter from MicroCal, LLC (GE Healthcare) equipped with a Washing module, with a cell volume of 0.2003 mL, and a 40 μL microsyringe. Experiments were carried out at 15 °C while stirring at 1000 rpm, in ITC buffer (50 mM HEPES, pH 7.5 (at 25 °C), 150 mM NaCl). The microsyringe was loaded with a solution of the protein sample (300−740 μM protein for BRD9 and BRD4(1), respectively, in ITC buffer) and was carefully inserted into the calorimetric cell which was filled with an amount of the ligand (0.2 mL, 20–25 μM in ITC buffer). The system was first allowed to equilibrate until the cell temperature reached 15 °C, and an additional delay of 60 s was applied. All titrations were conducted using an initial control injection of 0.3 μL followed by 38 identical injections of 1 μL with a duration of 2 s (per injection) and a spacing of 120 s between injections. The titration experiments were designed in such a fashion as to ensure complete saturation of the proteins before the final injection. The heat of dilution for the proteins was independent of their concentration and corresponded to the heat observed from the last injection, following saturation of ligand binding, thus facilitating the estimation of the baseline of each titration from the last injection. The collected data were corrected for protein heats of dilution (measured on separate experiments by titrating the proteins into ITC buffer) and deconvoluted using the MicroCal Origin software supplied with the instrument to yield enthalpies of binding (ΔH) and binding constants (KB) in the same fashion as that previously described in detail by Wiseman and co-workers.[66] Thermodynamic parameters were calculated using the basic equation of thermodynamics (ΔG = ΔH – TΔS = −RT ln KB, where ΔG, ΔH, and ΔS are the changes in free energy, enthalpy, and entropy of binding, respectively). In all cases a single binding site model was employed, supplied with the MicroCal Origin software package.

[6] = biological target: T6, PB1(5) (Homo sapiens, UniProt Q86U86); assay: Protein stability (thermal) shift assay, PB1(5); type: binding; settings: compound 10 μM, protein 2 μM; average of triplicate
T6 construct: made in house

[7] = biological target: T7, PCAF (Homo sapiens, UniProt Q92831); assay: Protein stability (thermal) shift assay, PCAF; type: binding; settings: compound 10 μM, protein 2 μM; average of triplicate
T7 construct: representative BRDs from other structural subfamilies (family I, PCAF); made in house
T7 sequence (Q92831 723-827 limits assumed): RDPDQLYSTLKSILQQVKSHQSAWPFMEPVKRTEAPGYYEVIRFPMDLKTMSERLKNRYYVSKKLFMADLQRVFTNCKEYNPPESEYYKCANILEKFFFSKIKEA

[8] = biological target: T8, BRD3(2) (Homo sapiens, UniProt Q15059); assay: Protein stability (thermal) shift assay, BRD3(2); type: binding; settings: compound 10 μM, protein 2 μM; average of triplicate
T8 construct: made in house

[9] = tested on: human bromodomains (panel); assay: Protein stability (thermal) shift assay, whole panel of human bromodomains; type: binding; settings: 10 μM compound
Protocol: Thermal melting experiments were carried out using an Mx3005p real time PCR machine (Stratagene). Proteins were buffered in 10 mM HEPES, pH 7.5, 500 mM NaCl and assayed in a 96-well plate at a final concentration of 2 μM in 20 μL volume. Compounds were added at a final concentration of 10 or 100 μM. SYPRO Orange (Molecular Probes) was added as a fluorescence probe at a dilution of 1 in 1000. Excitation and emission filters for the SYPRO-Orange dye were set to 465 and 590 nm, respectively. The temperature was raised with a step of 3 °C per minute from 25 to 96 °C, and fluorescence readings were taken at each interval. The temperature dependence of the fluorescence during the protein denaturation process was approximated by the equation [drawing 1] where ΔuG is the difference in unfolding free energy between the folded and unfolded state, R is the gas constant, and yF and yU are the fluorescence intensity of the probe in the presence of completely folded and unfolded protein, respectively.[65] The baselines of the denatured and native states were approximated by a linear fit. The observed temperature shifts, ΔTm^obs, were recorded as the difference between the transition midpoints of sample and reference wells containing protein without ligand in the same plate and determined by nonlinear least-squares fit. Temperature shifts (ΔTm^obs) for three independent measurements per proteins/compound are summarized in Supporting Information Table S1.

[10] = biological target: T9, BAZ2B (Homo sapiens, UniProt Q9UIF8); assay: Protein stability (thermal) shift assay, BAZ2B; type: binding; settings: compound 10 μM, protein 2 μM; average of triplicate; read-out: ΔTm Shift, BAZ2BA
T9 construct: representative BRDs from other structural subfamilies (family I, PCAF); family III, CREBBP; family IV, BRD9; family V, BAZ2B; made in house
T9 sequence (Q9UIF8 2060-2164 limits assumed): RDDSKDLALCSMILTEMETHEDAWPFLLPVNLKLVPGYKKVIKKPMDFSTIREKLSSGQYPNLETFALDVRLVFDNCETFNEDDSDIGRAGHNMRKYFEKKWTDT

[11] = biological target: T10, BRD3(1) (Homo sapiens, UniProt Q15059); assay: Protein stability (thermal) shift assay, BRD3(1); type: binding; settings: compound 10 μM, protein 2 μM; average of triplicate
T10 construct: Fragments were tested in a thermal shift assay against bromodomains of the BET subfamily; made in house

[12] = biological target: T11, BRDT(1) (Homo sapiens, UniProt Q58F21); assay: Protein stability (thermal) shift assay, BRDT(1); type: binding; settings: compound 10 μM, protein 2 μM; average of triplicate
T11 construct: made in house

[13] = biological target: T12, BRD2(1) (Homo sapiens, UniProt P25440); assay: Protein stability (thermal) shift assay, BRD2(1); type: binding; settings: compound 10 μM, protein 2 μM; average of triplicate
T12 construct: Fragments were tested in a thermal shift assay against bromodomains of the BET subfamily; made in house

[14] = biological target: T5, BRD9; assay: Protein stability (thermal) shift assay, BRD9; type: binding; settings: compound 10 μM, protein 2 μM; average of triplicate; read-out: ΔTm Shift, BRD9
[15] = biological target: T13, BRD4(2) (Homo sapiens, UniProt O60885); assay: Protein stability (thermal) shift assay, BRD4(2); type: binding; settings: compound 10 μM, protein 2 μM; average of triplicate
T13 construct: made in house

[16] = Solubility (observation in words); type: physicochemical
[17] = 50 mM HEPES pH 7.5, 150 mM NaCl, 15 °C, reverse titration, triplicate, read-out: KD

T10 sequence (Q15059 34-140 limits assumed): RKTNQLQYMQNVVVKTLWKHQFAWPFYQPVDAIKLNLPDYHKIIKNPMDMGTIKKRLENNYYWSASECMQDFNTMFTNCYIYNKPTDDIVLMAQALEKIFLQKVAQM
T6 sequence (Q86U86 653-763 limits assumed): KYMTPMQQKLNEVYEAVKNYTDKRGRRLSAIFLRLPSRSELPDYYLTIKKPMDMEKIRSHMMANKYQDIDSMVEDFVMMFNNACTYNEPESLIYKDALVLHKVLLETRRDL
T3 sequence (P25440 344-453 limits assumed): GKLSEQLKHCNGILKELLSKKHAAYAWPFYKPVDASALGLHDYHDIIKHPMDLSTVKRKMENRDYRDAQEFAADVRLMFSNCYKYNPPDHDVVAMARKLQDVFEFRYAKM
T8 sequence (Q15059 306-415 limits assumed): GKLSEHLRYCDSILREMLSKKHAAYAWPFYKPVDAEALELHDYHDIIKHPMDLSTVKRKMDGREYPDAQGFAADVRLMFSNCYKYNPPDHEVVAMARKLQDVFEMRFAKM
T1 sequence (Q92793 1085-1192 limits assumed): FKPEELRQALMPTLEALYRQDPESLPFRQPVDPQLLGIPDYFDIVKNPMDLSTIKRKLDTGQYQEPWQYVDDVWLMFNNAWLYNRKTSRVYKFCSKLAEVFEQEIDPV
T12 sequence (P25440 74-180 limits assumed): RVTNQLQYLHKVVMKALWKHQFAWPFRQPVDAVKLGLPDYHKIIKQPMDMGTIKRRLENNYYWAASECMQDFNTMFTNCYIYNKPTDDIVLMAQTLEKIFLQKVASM

Row | SMILES | ΔTm at 10 µM [1] [°C] | ΔTm at 10 µM [2] [°C] | ΔTm at 10 µM [3] [°C] | ΔTm at 10 µM [4] [°C] | Kd [5, 17] [µM] | TΔS ([5]; 15 °C) | ΔG ([5]; 15 °C) | N (stoichiometry) ([5]; 15 °C, reverse titration) | ΔHobs ([5]; 15 °C, reverse titration) | LE (ligand efficiency) [5] | ΔTm at 10 µM [6] [°C] | ΔTm at 10 µM [7] [°C] | ΔTm at 10 µM [8] [°C] | binding to the bromodomain panel in the ΔTm assay (in words) [9] | ΔTm at 10 µM [10] [°C] | ΔTm at 10 µM [11] [°C] | ΔTm at 10 µM [12] [°C] | ΔTm at 10 µM [13] [°C] | ΔTm at 10 µM [14] [°C] | ΔTm at 10 µM [15] [°C] | also measured
1 | COc1ccc(Br)cc1-c1nc(Cl)nc2[nH]cnc12 [Compound 8a, 6-(5-Bromo-2-methoxyphenyl)-2-chloro-9H-purine] | 2.5 | 1.3 | -0.564 | -0.164 | 7.87 ± 0.258 | –1.57 kcal/mol | –6.73 kcal/mol | 1.06 ± 0.014 | –8.30 ± 0.15 kcal/mol | 0.35 | 1.3 | -0.4 | -0.00857 | loss of affinity toward all BRDs | -0.7 | 1 | -0.541 | 0.8 | 0.9 | 0.3 | Kd ([5]; read-out: dissociation constant): 7.9 µM
2 | COc1ccc(Cl)cc1-c1nc(O)nc2[nH]cnc12 [Compound 8e, 6-(5-Chloro-2-methoxyphenyl)-2-hydroxy-9H-purine] | 1 | 2.3 | 1.2 | 1.8 | 7.58 ± 0.365 | 1.40 kcal/mol | –6.75 kcal/mol | 1.05 ± 0.013 | –5.35 ± 0.09 kcal/mol | 0.36 | 1.7 | 2 | 1.3 | promiscuously bound to most bromodomains | 1.2 | 1.9 | 1.5 | 2.1 | -0.2 | 1.3 | 
3 | COc1ccc(Br)cc1-c1ncnc2[nH]c(C)nc12 [Compound 9a, 6-(5-Bromo-2-methoxyphenyl)-8-methyl-9H-purine] |  |  |  |  |  |  |  |  |  |  |  |  |  |  |  |  |  |  |  |  | solubility (in words) [16]: low solubility
4 | Nc1nc(-c2cccc3c2Sc2ccccc2S3)c2nc[nH]c2n1 [Compound 10, 2-Amino-6-thianthrenyl-9H-purine] |  |  |  |  |  |  |  |  |  |  |  |  |  |  |  |  |  |  | 0.158 |  | solubility (in words) [16]: low solubility
